In brackets after ≈: the same amount, converted by molar mass. Activity calls are given as the source filed them. No cut-off for these calls is given here.

The values below come from ChEMBL document CHEMBL4699525, “Design and synthesis of new indanol-1,2,3-triazole derivatives as potent antitubercular and antimicrobial agents” (Bioorg Med Chem Lett, 2020).

The target in series [1] is T1, Enoyl-[acyl-carrier-protein] reductase [NADH] (Mycobacterium tuberculosis) (UniProt P9WGR1).
T1 sequence (whole entry): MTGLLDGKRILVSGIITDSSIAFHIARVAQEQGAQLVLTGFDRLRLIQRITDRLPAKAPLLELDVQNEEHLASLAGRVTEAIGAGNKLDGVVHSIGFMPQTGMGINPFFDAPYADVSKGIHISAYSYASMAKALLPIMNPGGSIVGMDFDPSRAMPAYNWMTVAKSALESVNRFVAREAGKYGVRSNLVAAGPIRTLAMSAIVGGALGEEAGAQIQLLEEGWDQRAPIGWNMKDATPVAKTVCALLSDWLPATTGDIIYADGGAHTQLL
In words: Inhibition of InhA in Mycobacterium tuberculosis H37Rv assessed antitubercular activity by measuring inhibition of bacterial growth incubated for 7 days by MABA assay. The settings on record: time 7.0 day. A general note: The colour change of resazurin is a common sign of viable cells or microbes.

Series [2] in a line: Cytotoxicity against human HEK293 cells assessed as inhibition of cell growth at 25 uM incubated for 48 hrs by MTT assay. Type of series: cell-based.
In the next series the test system is Staphylococcus aureus. Kind of series: Antibacterial activity against Staphylococcus aureus assessed as inhibition of bacterial growth incubated for 24 hrs by agar well diffusion method. Type of series: functional.
In the next series the test system is Bacillus cereus. Kind of series: Antibacterial activity against Bacillus cereus assessed as inhibition of bacterial growth incubated for 24 hrs by agar well diffusion method. Type of series: functional.
Another series has as its system Bacillus subtilis. In words: Antibacterial activity against Bacillus subtilis assessed as inhibition of bacterial growth incubated for 24 hrs by agar well diffusion method. It counts as functional. (In general: Agar diffusion results depend on both activity and mobility in agar.)
The next series relates to Klebsiella aerogenes. Kind of series: Antibacterial activity against Enterobacter aerogenes assessed as inhibition of bacterial growth incubated for 24 hrs by agar well diffusion method. Type of series: functional.
Another series has as its system Escherichia coli. In words: Antibacterial activity against Escherichia coli assessed as inhibition of bacterial growth incubated for 24 hrs by agar well diffusion method. It counts as functional.
The test system of a further series is Salmonella typhi. In words: Antibacterial activity against Salmonella typhi assessed as inhibition of bacterial growth incubated for 24 hrs by agar well diffusion method. It counts as functional. The settings on record: Salmonella enterica subsp. enterica serovar Typhi.
In another series the test system is Pseudomonas aeruginosa. In words: Antibacterial activity against Pseudomonas aeruginosa assessed as inhibition of bacterial growth incubated for 24 hrs by agar well diffusion method. Type of series: functional.
For another series, the system named is Shigella boydii. In words: Antibacterial activity against Shigella boydii assessed as inhibition of bacterial growth incubated for 24 hrs by agar well diffusion method. It counts as functional.
In series [3] the test system is Salmonella enterica subsp. enterica serovar Abony. In words: Antibacterial activity against Salmonella abony assessed as inhibition of bacterial growth incubated for 24 hrs by agar well diffusion method. It counts as functional.
For a further series, the system named is Aspergillus niger. In words: Antifungal activity against Aspergillus niger assessed as inhibition of fungal growth incubated for 24 hrs by agar well diffusion method. It counts as functional.
In a further series the test system is Candida albicans. Kind of series: Antifungal activity against Candida albicans assessed as inhibition of fungal growth incubated for 24 hrs by agar well diffusion method. It counts as functional.
A further series relates to Saccharomyces cerevisiae. In words: Antifungal activity against Saccharomyces cerevisiae assessed as inhibition of fungal growth incubated for 24 hrs by agar well diffusion method. It counts as functional.

In turn, `Cc1cccc(-n2cc(COc3ccc4c(c3)CCC4)nn2)c1` displayed an MIC in [1] of 12.5 µM (≈ 3.82 µg/mL). The inhibition at 48 h, 25 µM in series [2] came to 23.4%. The “diameter of the inhibition zone (DIZ)” value turned out to be 6 mm in the series with Staphylococcus aureus, 10 mm in the series with Candida albicans and 13 mm with Saccharomyces cerevisiae. Moreover, the “diameter of the inhibition zone (DIZ)” value in the series on Bacillus cereus, in the series on Bacillus subtilis, in the series with Klebsiella aerogenes, with Escherichia coli, in the series with Salmonella typhi and with Pseudomonas aeruginosa was “inactive” in each case. The “diameter of the inhibition zone (DIZ)” value (in the series on Shigella boydii; in series [3]; with Aspergillus niger) was “inactive” each time.
Regarding `Cc1cc(C)c(-n2cc(COc3ccc4c(c3)CCC4)nn2)c(C)c1`, the MIC in [1] turned out to be 6.25 µM (≈ 2.08 µg/mL). For the same molecule, the inhibition at 48 h, 25 µM in series [2] stood at 16.6%. Besides, the “diameter of the inhibition zone (DIZ)” value with Staphylococcus aureus, in the series on Bacillus cereus, in the series on Bacillus subtilis, in the series with Klebsiella aerogenes, in the series with Escherichia coli and with Salmonella typhi was “inactive” in each case. For the same molecule, the “diameter of the inhibition zone (DIZ)” value (in the series with Pseudomonas aeruginosa; in the series with Shigella boydii; in series [3]; in the series with Aspergillus niger; in the series with Candida albicans; in the series on Saccharomyces cerevisiae) was “inactive” each time.
In [1], `COc1cccc(-n2cc(COc3ccc4c(c3)CCC4)nn2)c1` gave an MIC of 12.5 µM (≈ 4.02 µg/mL). Further, the inhibition at 48 h, 25 µM in series [2] was found to be 25.8%. Further, the “diameter of the inhibition zone (DIZ)” value in the series on Staphylococcus aureus is 12 mm; in the series with Escherichia coli it was 10 mm; with Pseudomonas aeruginosa, 9 mm; in the series on Shigella boydii it was 13 mm; in [3], 11 mm; with Candida albicans, 12 mm. Moreover, the “diameter of the inhibition zone (DIZ)” value in the series with Bacillus cereus, with Bacillus subtilis, with Klebsiella aerogenes and in the series with Saccharomyces cerevisiae was “inactive” each time.
In the case of `Fc1ccccc1-n1cc(COc2ccc3c(c2)CCC3)nn1`, the MIC in series [1] was 6.25 µM (≈ 1.93 µg/mL). In addition, the inhibition at 48 h, 25 µM in [2] turned out to be 21%. In addition, the “diameter of the inhibition zone (DIZ)” value turned out to be 15 mm in the series on Staphylococcus aureus, 9 mm in the series on Candida albicans and 10 mm with Saccharomyces cerevisiae. The “diameter of the inhibition zone (DIZ)” value in the series on Bacillus cereus, in the series with Bacillus subtilis, in the series with Klebsiella aerogenes, in the series on Escherichia coli, in the series with Salmonella typhi and in the series with Pseudomonas aeruginosa was “inactive” throughout. Moreover, the “diameter of the inhibition zone (DIZ)” value (in the series on Shigella boydii; in series [3]; in the series with Aspergillus niger) was “inactive” in each case.
As to `COc1ccc(NC(=O)Cn2cc(COc3ccc4c(c3)CCC4)nn2)cc1`, the MIC in [1] was above 25 µM. The “diameter of the inhibition zone (DIZ)” value with Staphylococcus aureus, with Bacillus cereus, with Bacillus subtilis, in the series on Klebsiella aerogenes, in the series on Escherichia coli and in the series with Salmonella typhi was “inactive” in each case. Besides, the “diameter of the inhibition zone (DIZ)” value (in the series on Pseudomonas aeruginosa; with Shigella boydii; in series [3]; with Aspergillus niger; in the series on Candida albicans; in the series on Saccharomyces cerevisiae) was “inactive” in each case.
The molecule `COc1ccccc1-n1cc(COc2ccc3c(c2)CCC3)nn1` yielded an MIC in [1] of 12.5 µM (≈ 4.02 µg/mL). In [2], the inhibition at 48 h, 25 µM turned out to be 19.8%. The “diameter of the inhibition zone (DIZ)” value in the series with Staphylococcus aureus and in the series on Candida albicans was 10 mm in each case. For the same molecule, the “diameter of the inhibition zone (DIZ)” value in the series with Bacillus cereus, in the series with Bacillus subtilis, in the series with Klebsiella aerogenes, in the series on Escherichia coli, in the series with Salmonella typhi and in the series on Pseudomonas aeruginosa was “inactive” throughout. For the same molecule, the “diameter of the inhibition zone (DIZ)” value (in the series on Shigella boydii; in series [3]; in the series with Aspergillus niger; with Saccharomyces cerevisiae) was “inactive” each time.
For the molecule `Clc1ccc(-n2cc(COc3ccc4c(c3)CCC4)nn2)cc1`, the MIC in series [1] is above 25 µM. In addition, the “diameter of the inhibition zone (DIZ)” value stood at 8 mm in the series on Staphylococcus aureus, 10 mm in the series with Candida albicans and 8 mm in the series on Saccharomyces cerevisiae. The “diameter of the inhibition zone (DIZ)” value in the series on Bacillus cereus, in the series on Bacillus subtilis, in the series on Klebsiella aerogenes, with Escherichia coli, with Salmonella typhi and in the series on Pseudomonas aeruginosa was “inactive” in each case. The “diameter of the inhibition zone (DIZ)” value (with Shigella boydii; in series [3]; with Aspergillus niger) was “inactive” in each case.
`Cc1ccc([N+](=O)[O-])cc1NC(=O)Cn1cc(COc2ccc3c(c2)CCC3)nn1` came in with an MIC in series [1] above 25 µM. Moreover, the “diameter of the inhibition zone (DIZ)” value (with Staphylococcus aureus; in the series on Bacillus cereus; in the series with Bacillus subtilis; with Escherichia coli; in the series on Salmonella typhi; in series [3]) was “inactive” throughout. For the same molecule, the “diameter of the inhibition zone (DIZ)” value with Aspergillus niger, in the series on Candida albicans and in the series with Saccharomyces cerevisiae was “inactive” each time. Besides, the “diameter of the inhibition zone (DIZ)” value with Klebsiella aerogenes was found to be 12 mm; with Pseudomonas aeruginosa, 9 mm; in the series with Shigella boydii it was 9 mm.
As to `Cc1ccc(NC(=O)Cn2cc(COc3ccc4c(c3)CCC4)nn2)c(C)c1`, in series [1], the MIC was above 25 µM. Besides, the “diameter of the inhibition zone (DIZ)” value in the series on Staphylococcus aureus, with Bacillus cereus, in the series with Bacillus subtilis, in the series with Klebsiella aerogenes, with Escherichia coli and in the series with Salmonella typhi was “inactive” each time. Moreover, the “diameter of the inhibition zone (DIZ)” value (in the series on Pseudomonas aeruginosa; in series [3]; in the series on Aspergillus niger; with Candida albicans; in the series with Saccharomyces cerevisiae) was “inactive” each time. In addition, the “diameter of the inhibition zone (DIZ)” value with Shigella boydii is 13 mm.
In the case of `O=C(Cn1cc(COc2ccc3c(c2)CCC3)nn1)Nc1ccc(Br)cc1`, in series [1], the MIC is above 25 µM. In addition, the “diameter of the inhibition zone (DIZ)” value (in the series with Staphylococcus aureus; with Bacillus cereus; in the series on Bacillus subtilis; with Escherichia coli; in the series with Salmonella typhi; in [3]) was “inactive” throughout. Further, the “diameter of the inhibition zone (DIZ)” value in the series with Aspergillus niger and in the series with Candida albicans was “inactive” each time. Further, the “diameter of the inhibition zone (DIZ)” value with Klebsiella aerogenes was 12 mm; in the series on Pseudomonas aeruginosa, 5 mm; in the series with Shigella boydii, 13 mm; in the series with Saccharomyces cerevisiae, 12 mm.

The term inhibition denotes the relative decrease from the control value, in per cent.
